Values of other authors as cited in patent publication US20060217894A1, “Use of computationally derived protein structures of genetic polymorphisms in pharmacogenomics for drug design and clinical applications” (priority 1999, published 2006).

Target: NS3 protease (Hepatitis C virus genotype 1b, UniProt P26663)
Settings: values obtained from literature (Ingallinella et al. 1998)

Chain of NS3 protease (P26663 1027-1657, other chains not shown): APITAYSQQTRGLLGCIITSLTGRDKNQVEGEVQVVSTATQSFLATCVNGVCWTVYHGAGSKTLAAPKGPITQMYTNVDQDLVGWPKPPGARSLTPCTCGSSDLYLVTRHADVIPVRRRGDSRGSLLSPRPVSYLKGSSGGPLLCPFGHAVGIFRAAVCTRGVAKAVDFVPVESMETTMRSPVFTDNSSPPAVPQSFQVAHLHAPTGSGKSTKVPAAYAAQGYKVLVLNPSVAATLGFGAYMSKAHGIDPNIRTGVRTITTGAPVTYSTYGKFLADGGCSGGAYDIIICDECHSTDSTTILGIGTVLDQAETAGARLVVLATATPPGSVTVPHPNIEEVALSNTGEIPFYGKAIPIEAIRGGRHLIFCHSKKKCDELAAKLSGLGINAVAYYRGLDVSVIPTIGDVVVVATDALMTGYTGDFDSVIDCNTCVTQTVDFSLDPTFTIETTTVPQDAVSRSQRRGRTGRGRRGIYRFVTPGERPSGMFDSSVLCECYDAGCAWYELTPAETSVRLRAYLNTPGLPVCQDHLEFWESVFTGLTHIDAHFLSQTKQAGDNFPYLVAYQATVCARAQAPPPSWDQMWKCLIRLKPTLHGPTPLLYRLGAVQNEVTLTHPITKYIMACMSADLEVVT

| Substance | IC50 [nM] |
| --- | --- |
| Ac-Asp^1-D-Glu^2-Leu^3-Ile^4-Cha^5-Cys^6-COO- | 15 |
| Ac-Asp^1-L-Glu^2-Leu^3-Ile^4-Cha^5-Cys^6-COO- | 60 |
